Where “and” joins values, the source holds several entries; their conditions need not be identical. Equal entries are not always repeated. Entries after “also recorded” stand apart in the source; their conditions may differ.
Key:
[1] = tested on: VPAHPND (13-028/A3), AHPND-causing Vibrio parahaemolyticus; assay: Paper disk diffusion assay; assay type: cell-based; settings: mean ± SD; for Average diameter of inhibitory zone (mm) CNE 1/16: extract concentration 1/16 (v/v); for Average diameter of inhibitory zone (mm) CNE 1/16 / Average diameter of inhibitory zone (mm) CNE ¼ / Average diameter of inhibitory zone (mm) CNE ½ / Average diameter of inhibitory zone (mm) CNE ⅛: ND: not detected, <7 mm = no antimicrobial activity; for Average diameter of inhibitory zone (mm) CNE ¼: extract concentration ¼ (v/v); for Average diameter of inhibitory zone (mm) CNE ½: extract concentration ½ (v/v), 2 μL on paper disk, TSA+, 28° C., 24 hr; for Average diameter of inhibitory zone (mm) CNE ⅛: extract concentration ⅛ (v/v)
Experimental: (§1) VPAHPND (13-028/A3) was revived from glycerol stock kept in −80 degrees C. in Aquaculture Pathology Laboratory following a previous publication (Han et al., 2015). Briefly, 800 mL of Tryptic Soy Broth (TSB) containing 2% NaCl (TSB+) medium was prepared and autoclaved. The bacterial stock was thawed on ice and briefly vortexed before transferring 250 μl of the bacterial culture to 5 ml TSB+ in a 50 ml flask. The flask was incubated at 28 degrees C. in a shaker incubator (CORNING, Model LSE) (120 rpm) for 2 h. After the incubation, the broth was transferred into 50 ml TSB+ in a 250 ml flask before incubating at 28 degrees C. in a shaker incubator (120 rpm) for 2 h. After 2 h., the bacterial culture was mixed with 300 ml TSB and incubated for 24 h at 28 degrees C. After 24 h, the optical density (OD) of the culture was measured at 600 nm. Under these culture conditions, the OD values should exceed 2.8. The broth was diluted to 1×10^7 CFU/ml based on the OD reading. A 10-fold serial dilution of the bacterial culture was prepared and the live bacterial count upon overnight growth was determined by plating the culture on Tryptic Soy Agar (TSA) containing 2% NaCl (TSA+) plates.
The antibacterial activities of the NEs were tested using a paper disk diffusion assay following a previously published method with some modifications (Mith et al., 2014). Briefly, the extracts were diluted with fish oil (NE01-NE013) or DMSO (NE14 to NE18) at the following concentrations: 1:1, 1:2, 1:4, and 1:8. The VPAHPND (13-028/A3) culture lawns were created on TSA+plates by thoroughly streaking the culture over the entire surface of the plate with a cotton swab. Meanwhile, 2 μL of each concentration of the NEs was soaked on to a paper disk for 15 min before placing in the center of the bacteria inoculated TSA+plates. Fish oil and DMSO were used as controls. For each dilution of the NE two replicates were done. The plates were then incubated at 28° C. for 24 hr. The efficacy of the extract in inhibiting bacterial growth was determined by measuring the diameter of clear zones for each concentration to the nearest millimeter (mm). The diameter of the inhibitory zone <7 mm was considered as having no antimicrobial activity (Mith et al., 2014). The experiments were repeated four times for all 18 NEs, and the average was taken to calculate the diameter of the inhibitory zone.

[2] = tested on: Vibrio parahaemolyticus (Strain A3); assay: Minimum inhibitory concentration (MIC) assay in liquid culture (OD600 and colony count); assay type: cell-based; settings: for OD600: 24 hr; for MIC assay results: effective concentration (Example 1): Example 1, liquid culture; for MIC (Example 2): TSB+ liquid culture, OD600 and colony count, 24 h and 48 h; for Extract concentration at which bacterial count is zero / no survivors: viable colony count at 48 h on TSA+ plates
Experimental: Absorbance (OD600) and total colony count (upon plating overnight culture grown in the presence of natural extracts) were employed for screening.
as §1
Initially extracts were diluted up to 50% with diluent fish oil, then a serial dilution of extracts was prepared Concentrations of extracts range between [0.3-0.0937% (v/v)], which was prepared in TSB+ (Tryptic soy broth) medium. The culture medium TSB+ (2 ml) containing NEs was inoculated with 100 μL (approx. 1×10^7 CFU/mL) of an overnight culture of the pathogen and briefly mixed by vortexing before incubating at 28 degrees C. The OD600 values was recorded at 12, 24 and 48 h post-incubation (FIG. 9). In addition, at each time point and for each concentration of the NEs, aliquots of bacterial suspension were inoculated on TSA+plate before incubating overnight at 28 degrees C. The MIC for each NE was determined by recording OD600 values and taking bacterial count. For each NE, the MIC assay was repeated three times on different days, and the average OD600 value was taken to determine the MIC for each concentration of a corresponding NE.

VPAHPND cells = assay: Scanning electron microscopy of NE treated VPAHPND cells; assay type: cell-based, Vibrio parahaemolyticus; settings: sub-inhibitory concentration of extract, 24 hr incubation
Experimental: The effect of NEs on bacterial cells was determined by culturing VPAHPND in medium containing NEs and examining the cells under a scanning electron microscope (SEM). The subinhibitory concentration of extracts used in the medium was MIC. The control treatment was VPAHPND grown in the presence of fish oil. Samples were fixed by following a protocol described by Lv et al. (2011) and McQuade et al. (2012) with some modifications. Briefly, 25 μl of 8% glutaraldehyde solution (Electron Microscopy Sciences, Hatfield, Pa.) was added to 200 μl of the overnight culture of bacteria. After 40 minutes of incubation at room temperature, samples were washed three times with 1× phosphate-buffered saline (PBS, pH 7.0). Subsequently, samples were washed with water and stained with 1% osmium tetroxide (Ted Pella, Inc., Redding, Ariz.). Finally, samples were washed in water and dehydrated in a series of ethanol solutions with concentrations ranging from 30% to 90% (v/v). The slides with fixed bacterial cells were mounted, sputter-coated in gold under vacuum, and examined using a […] field emission scanning electron microscope (ANATECH, USA).

[3] = tested on: AHPND-causing Vibrio parahaemolyticus; assay: AHPND bioassay: NE05 in diet, immersion challenge (clinical signs, survival, mortality); assay type: in vivo, Penaeus vannamei; settings: for Percent survival: 7 days post-challenge, three independent experiments
Experimental: The efficacy of NE05 in preventing AHPND was evaluated by using an in vivo assay. The NE05 was mixed with a commercially pelleted shrimp diet at concentrations of 20% and 10% (v/w). Commercial diets containing 20% and 10% fish oil were used as controls. The feed was prepared using a standard feed maker (CORNING, Model LSE) and dried in a chemical hood for 24 h at room temperature. The feed was coated with fish oil dried for an additional 12 h to prevent the smell and increase palatability.
Ten 37 L glass tanks were used in this study. Seawater was prepared following a SOP used in Aquaculture Pathology Laboratory. Approximately 800 g of sea salt (Marinex, Baltimore, Md.) was mixed with 30 L of tap water to get 20-25 ppt of salinity. After the marine salt was dissolved, salinity was checked using a refractometer (SPER SCIENTIFIC, Model #300011). The salinity level of the water was adjusted by adding water until the range needed for the study was reached (20-25 ppt). Throughout the experiment, the room temperature was maintained at 29±2 degrees C. using a heater. Before starting the bioassay, the tanks were held for two days without any animal to equilibrate the water temperature to that of the room. The water temperature was maintained at 29±2 degrees C. Each tank was equipped with an air pump having an air capacity of 2.5 liters/min connected to two air stones. One air stone was directly immersed into the tank, and the other one was connected to the filters. Disinfected weight was kept above each air stone. The heater was kept inside the room during the experiment.
(§2) Specific Pathogen Free shrimp (P. vannamei) (avg. weight 1-2 g) were stocked at a density of 10 shrimp/tank. In total there were two treatments and two controls: shrimp fed diet containing 20% NE05, 10% NE05, a positive and a negative control (shrimp fed diet containing fish oil). Each treatment and control had two replicates. Animals in all treatments except the negative control were subjected to an immersion challenge with V. parahaemolyticus. In the negative control tanks, sterilized TSB+ medium was added instead of bacterial suspension. Throughout the experiment, shrimps were fed corresponding diets daily at 5% of their body weight. The experiments were repeated three times. On day 6 post-feeding of the experimental diets, shrimps were challenged with V. parahaemolyticus at a dose of 10^6 CFU/ml (500 ml of V. parahaemolyticus culture grown for 24 h, OD600 of 5). After the bacterial challenge, tanks were monitored several times a day, and mortalities were recorded, and dead shrimps were removed immediately. Hepatopancreas tissue from moribund shrimp was dissected, half of the tissue was preserved in Davidson's fixative for histopathology, while the remaining half of hepatopancreas was stored at −20 degrees C. for PCR detection of V. parahaemolyticus. […] At the termination of the bioassay, average mortality for each treatment was calculated, and one-way ANOVA was performed to determine any significant difference among different treatments. A (p-value <0.05) between treatments was considered significant.

[4] = tested on: AHPND-causing Vibrio parahaemolyticus; assay: Histopathology (H&E) of hepatopancreas of shrimp from the AHPND bioassay; assay type: in vivo, Penaeus vannamei
Excerpt: as §2
Moribund shrimp were fixed in Davidson's alcohol-formalin-acetic acid (AFA). The samples were processed, embedded in paraffin, and sectioned ([…]) following a standard protocol (Lightner, 1996). The sections were stained with hematoxylin and eosin (H&E) and examined using a light microscope for histological lesions of AHPND (Tran et al., 2013).

Compound | Average diameter of inhibitory zone (mm) CNE 1/16 [1] [mm] | Average diameter of inhibitory zone (mm) CNE ¼ [1] [mm] | Average diameter of inhibitory zone (mm) CNE ½ [1] [mm] | Average diameter of inhibitory zone (mm) CNE ⅛ [1] [mm] | MIC assay results: effective concentration (Example 1) [2] [v/v %] | MIC (Example 2) [2] [v/v %] | Extract concentration at which bacterial count is zero / no survivors [2] | Bacterial cell morphology under SEM (VPAHPND cells) | also measured
CC(C)=CCCC(C)=CC=O [NE01, Citral] | 7.48 ± 0.42 | 12.53 ± 0.50 | 17.75 ± 1.4 | 9.36 ± 0.58 | 0.015 | 0.15 | 0.15 % (v/v) | a few irregular wrinkled cells but also had a lot of intact cells | OD600 ([2]; extract concentration 0.0983%): 2.5; OD600 ([2]; extract concentration 0.15% (v/v)): zero; Bacterial count ([2]; 48 h, extract concentration 0.0983% (v/v)): 2.5×10^9 CFU/ml
Cc1ccc(C(C)C)cc1O [NE03, Cavacrol] | 8.53 ± 0.16 | 16 ± 0.77 | 20.51 ± 0.97 | 13.53 ± 0.42 | 0.007 | 0.075 | 0.075 % (v/v) | non-intact lysed cells with possible leaking out of cytoplasmic constituents; also recorded: disruption of cell surface and leaking of cytoplasmic components; also recorded: affected bacterial cell wall resulting in its disruption and leaking of intracellular components | –
O=C/C=C/c1ccccc1 [NE05, Trans Cinnamaldehyde] | 9.36 ± 0.32 | 18.66 ± 0.98 | 26±1.8 | 14.03 ± 0.80 | 0.002 | 0.02 | 0.02 % (v/v) | extensive cell wall damage, and possible leaking out of intracellular components; also recorded: disruption of cell surface and leaking of cytoplasmic components; also recorded: affected bacterial cell wall resulting in its disruption and leaking of intracellular components | Mortality by day 3 ([3]; diet containing NE05-10%): 85%; Time at which mortality began post-challenge ([3]; diet containing NE05-10%): 10 h; Percent survival ([3]; diet containing NE05-10%): 15%; Mortality during the first 24 h post-challenge ([3]; diet containing NE05-20%): did not show mortality; Percent survival ([3]; diet containing NE05-20%): 100% and 93%; Mortality by day 2 ([3]; diet containing NE05-20%, thereafter no mortality): 4%; Gross clinical signs of AHPND ([3]; shrimp fed diet containing NE05 at 10%, immersion challenge): appeared clinically similar to the animals fed commercial diet; also recorded: HP appeared pale and gut empty; Histopathology of hepatopancreas ([4]; NE05-10% treatment, 24 h post-challenge): Mild sloughing of epithelial cells in hepatopancreatic tubule; Histopathology of hepatopancreas ([4]; NE05-10% treatment, 48 h post-infection): hallmark of AHPND infection; Histopathology of hepatopancreas ([4]; NE05-20% treatment, 24 & 48 h post-challenge): did not show any lesions that are considered pathognomonic of AHPND; also recorded: showed no lesions that are pathognomonic of AHPND; H&E histological section of HP tissue (FIGS. 19E-19F) ([4]; diet containing NE05-10%, challenged with AHPND): Terminal phase lesions displaying sloughing of necrotic HP tubule epithelial cells; H&E histological section of HP tissue (FIGS. 19G-19H) ([4]; diet containing NE05-20%, challenged with AHPND): Hepatopancreatic tubule appear similar to healthy animals
Doxycycline Hyclate [reference compound] | – | – | – | – | – | – | – | – | Average diameter of inhibitory zone (mm), antibiotic reference standard ([1]; Doxycycline Hyclate 10 μg): 24.43±0.57 mm

Source: patent US20220400703A1, “FORMULATIONS FOR TREATMENT OF VIBRIO INFECTIONS” (ARIZONA BOARD OF REGENTS ON BEHALF OF THE UNIVERSITY OF …, priority 2019, published 2022)
